This is an account of results in US9505796B2, “Phosphorylated A2A receptor agonists” (Crozet Medical GMBH, priority 2006, dated 2016).

Values joined by “and” are separate entries in the source; they are usually repeats but may differ in a detail not shown here. Equal values may be shown once.

Assay [1] addresses T1, recombinant soluble glutathione-S-transferase/ecto-5′-nucleotidase fusion protein (rat enzyme) (Rattus norvegicus, UniProt P21588).
T1 construct: Catalytically active recombinant soluble glutathione-S-transferase/ecto-5′-nucleotidase fusion protein; Dr. Herbert Zimmermann, University of Frankfurt (gift); host or cells: insect cells, baculovirus system
T1 sequence (P21588 29-551 limits assumed): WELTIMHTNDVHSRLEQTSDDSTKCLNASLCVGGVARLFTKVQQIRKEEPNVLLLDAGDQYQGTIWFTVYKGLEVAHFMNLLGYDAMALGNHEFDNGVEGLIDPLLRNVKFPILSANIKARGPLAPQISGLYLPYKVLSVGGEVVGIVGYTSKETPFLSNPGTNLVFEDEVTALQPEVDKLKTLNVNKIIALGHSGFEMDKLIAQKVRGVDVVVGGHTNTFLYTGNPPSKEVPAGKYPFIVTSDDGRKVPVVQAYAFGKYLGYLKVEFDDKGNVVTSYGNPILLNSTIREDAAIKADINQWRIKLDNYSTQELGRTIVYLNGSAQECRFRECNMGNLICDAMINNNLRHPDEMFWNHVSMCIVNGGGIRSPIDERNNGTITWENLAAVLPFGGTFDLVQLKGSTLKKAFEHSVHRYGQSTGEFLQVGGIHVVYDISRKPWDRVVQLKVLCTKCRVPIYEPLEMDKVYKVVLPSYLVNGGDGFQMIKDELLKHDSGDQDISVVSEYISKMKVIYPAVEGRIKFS
Nature of the assay: Ecto-5′-nucleotidase substrate specificity assay by capillary electrophoresis. Type of assay: biochemical. As to conditions: 500 μM nucleoside 5′-monophosphate, 37° C., 20 min; relative to AMP set at 100%; n = 3. The protocol:
Catalytically active recombinant soluble glutathione-S-transferase/ecto-5′-nucleotidase fusion protein (rat enzyme) was expressed in insect cells using the baculovirus system and purified by affinity chromatography using agarose-coupled GSH as previously described.^6 The enzyme was obtained from Prof. Dr. Herbert Zimmermann, University of Frankfurt.
Compounds were dissolved in DMSO to obtain 5.0 mM stock solutions. These were further diluted to obtain 1 mM solutions in assay buffer (10 mM Hepes, pH 7.4, 2 mM MgCl2, 1 mM CaCl2). The 1 mM solutions were further diluted in the same buffer as required for the standard calibration curves and the enzyme assays.
CE separations were carried out using a P/ACE MDQ system (Beckman Coulter Instruments, Fullerton, Calif., USA) equipped with a DAD detection system. The electrophoretic separations were carried out using an eCAP fused-silica capillary [30 cm (20 cm effective length), ×75 μm internal diameter (I.D), ×375 μm outside diameter (0.D) obtained from Beckman Coulter]. The following conditions were applied: T=25° C., λmax=232 nm, voltage=15 kV, running buffer 40 mM sodium borate buffer, pH 9.1. The capillary was washed with 0.1 M NaOH for 2 min, deionized water for 1 min, and running buffer for 1 min before each injection. Injections were made by applying 0.1 psi of pressure to the sample solution for 30 s. The amount of adenosine or other nucleosides formed was determined. The CE instrument was fully controlled through a personal computer, which operated with the analysis software 32 KARAT obtained from Beckman Coulter. Electropherograms were evaluated using the same software.
Ecto-5′-nucleotidase substrate specificity assays were performed by using capillary electrophoresis method. Enzyme substrate assays were carried out at 37° C. in a final volume of 100 μl. The reaction mixture contained 500 μM of the nucleoside 5′-monophosphate to be investigated dissolved in reaction buffer (10 mM Hepes, pH 7.4, 2 mM MgCl2, 1 mM CaCl2). The reactions were initiated by adding 10 μl of the appropriately diluted enzyme and was then allowed to proceed at 37° C. for 20 min. The reaction was stopped by heating the mixture at 99° C. for 5 min. Aliquots of 50 μl of the reaction mixture were transferred to mini CE vials and injected into the CE instrument under the conditions described above. The absorbance at 232 nm was monitored continuously and the nucleoside concentrations were determined from the area under each absorbance peak. The experiments were repeated twice with triplicate injections. Control experiments were performed in the absence of substrate and in the absence of enzyme in order to take into account the spontaneous hydrolysis of nucleoside-5′ monophosphates under the experimental conditions, which always amounted to less than 1%.
For the quantification of the dephosphorylation reaction products, we applied the internal normalization method. Thus, the individual peak areas reflected directly the relative content of a corresponding analyte. […] It was verified that in fact there were no observable differences in detector response at the used wavelength and thus no additional correction factors had to be employed for the calculation of the amount of product relative to the amount of substrate. This method is also completely independent of the amount of substrate injected into the capillary which represents 100% at zero reaction time.
Besides AMP, other nucleoside 5′-monophosphates (FIG. 1) were investigated as alternative substrates of ecto-5′-NT. All nucleotides (AMP) were used at a concentration of 500 μM in the presence of 2 mM MgCl2, 1 mM CaCl2, 10 mM Hepes, pH, 7.4, and suitably diluted ecto-5′-NT. Some of the nucleoside 5′-monophosphates were efficiently dephosphorylated to the corresponding nucleosides by the enzyme (Table 1).

Assay [2] has as its target T2, A1 receptor rat brain cortical membranes (Rattus norvegicus, UniProt P25099).
T2 construct: A1 receptor rat brain; from tissue; host or cells: rat brain cortical membranes
T2 sequence (P25099 1-326): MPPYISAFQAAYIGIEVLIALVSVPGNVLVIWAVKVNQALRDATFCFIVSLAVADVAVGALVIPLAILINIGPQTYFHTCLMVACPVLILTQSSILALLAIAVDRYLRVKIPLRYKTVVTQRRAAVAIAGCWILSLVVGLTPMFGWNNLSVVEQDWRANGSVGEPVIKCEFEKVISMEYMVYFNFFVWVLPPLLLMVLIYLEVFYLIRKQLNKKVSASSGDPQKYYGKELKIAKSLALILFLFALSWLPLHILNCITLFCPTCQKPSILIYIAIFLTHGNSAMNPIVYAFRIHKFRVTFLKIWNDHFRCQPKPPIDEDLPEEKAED
Nature of the assay: A1 adenosine receptor radioligand binding vs. [3H]CCPA. As to conditions: rat brain cortical membranes vs. [3H]CCPA (agonist radioligand). An excerpt: (§1) Tris was obtained from Acros Organics (Leverkusen, Germany); DMSO was from Fluka (Switzerland), HCl was from Merck, HAT supplement from Gibco. [^3H]CCPA ([^3H]2-chloro-N^6-cyclopentyladenosine), [^3H]MSX-2 ([^3H]3-(3-hydroxypropyl)-7-methyl-8-(m-methoxy-styryl)-1-propargylxanthine) (84 Ci/mmol), and [^3H]DSB-11 ([^3H]8-ethyl-4-methyl-2-phenyl-(8R)-4,5,7,8-tetrahydro-1H-imidazo[2,1-i]-purin-5-one (53 Ci/mmol)) were custom-labeled by Amersham. All other chemical reagents, cell culture materials and adenosine receptor ligands were obtained from Sigma.
(§2) Radioligand binding studies were performed as previously described.^7,8

Assay [3] addresses T3, A2A receptor rat brain striatal membranes (Rattus norvegicus, UniProt P30543).
T3 construct: A2A receptor rat brain; from tissue; host or cells: rat brain striatal membranes
Nature of the assay: A2A adenosine receptor radioligand binding, rat brain striatal membranes.
From the text: as §1, §2

The target in assay [4] is T4, A3 receptor human recombinant receptors expressed in CHO cells (Homo sapiens, UniProt P0DMS8).
T4 construct: expressed in transfected cells; host or cells: CHO cells
T4 sequence (P0DMS8 1-318): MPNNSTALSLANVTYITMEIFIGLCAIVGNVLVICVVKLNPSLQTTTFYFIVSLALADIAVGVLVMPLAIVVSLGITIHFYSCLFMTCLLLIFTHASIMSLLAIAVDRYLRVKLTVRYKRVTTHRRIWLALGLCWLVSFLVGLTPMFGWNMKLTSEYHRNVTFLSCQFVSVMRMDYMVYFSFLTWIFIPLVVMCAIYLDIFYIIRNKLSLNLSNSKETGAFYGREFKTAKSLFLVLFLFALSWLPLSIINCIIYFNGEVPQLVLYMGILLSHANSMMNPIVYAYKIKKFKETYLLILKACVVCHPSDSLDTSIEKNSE
The experiment in a line: A3 adenosine receptor radioligand binding vs. [3H]PSB-11. As to conditions: human recombinant receptors in CHO cells vs. [3H]PSB-11 (antagonist radioligand; agonist affinities underestimated).
From the text: as §1, §2

[5] abbreviates: rat brain striatal membranes vs. [3H]MSX-2 (antagonist radioligand; agonist affinities underestimated).

T3 sequence (P30543 whole entry): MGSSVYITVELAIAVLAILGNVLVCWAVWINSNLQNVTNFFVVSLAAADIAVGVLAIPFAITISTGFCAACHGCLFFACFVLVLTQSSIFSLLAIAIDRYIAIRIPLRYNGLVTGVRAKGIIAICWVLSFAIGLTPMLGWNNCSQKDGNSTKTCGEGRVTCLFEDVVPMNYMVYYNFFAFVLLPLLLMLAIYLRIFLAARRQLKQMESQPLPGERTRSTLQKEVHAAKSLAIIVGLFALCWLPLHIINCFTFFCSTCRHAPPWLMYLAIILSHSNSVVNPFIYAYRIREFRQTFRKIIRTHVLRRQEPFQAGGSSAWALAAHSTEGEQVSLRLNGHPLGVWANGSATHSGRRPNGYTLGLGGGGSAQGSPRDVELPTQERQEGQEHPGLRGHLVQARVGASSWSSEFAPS

Regarding `Nc1nc(SCc2ccccc2)nc2c1ncn2[C@@H]1O[C@H](COP(=O)(O)O)[C@@H](O)[C@H]1O` [Compound 8, 2-(Benzylthio)adenosine-5′-monophosphate], in assay [1], the “Dephosphorylation (%) by ecto-5′-nucleotidase in comparison with AMP” value (from here on “Dephosphorylation (%)”) came to 0%. As for “2-(Propylthio)adenosine-5′-monophosphate [Compound 4]”, the Ki in assay [2] was found to be 1270 nM; in assay [3] (rat brain striatal membranes vs. [3H]CGS21680 (agonist radioligand)), 1350 nM. `Nc1ncnc2c1ncn2[C@@H]1O[C@H](COP(=O)(O)O)[C@@H](O)[C@H]1O` [AMP, adenosine monophosphate, reference compound]: the “Dephosphorylation (%)” value in assay [1] worked out at 100 ± 1.15%. On to “2-(Hexylthio)adenosine-5′-monophosphate [Compound 6]”, for which the values for the Ki in assay [2], in assay [4] and in assay [3] (setting [5]) were 256 nM, 2300 nM and 1000 nM, respectively. As for `CCCCCCSc1nc(N)c2ncn([C@@H]3O[C@H](COP(=O)(O)O)[C@@H](O)[C@H]3O)c2n1` [Compound 6, 2-(Hexylthio)adenosine-5′-monophosphate], the “Dephosphorylation (%)” value in assay [1] came out at 84.2 ± 2.61%.

For “2-(Cyclohexylethylthio)adenosine-5′-monophosphate [Compound 3]”, the inhibitory constant (Ki) in assay [4] was 3600 nM.

Regarding “2-(Phenylethylthio)adenosine-5′-monophosphate [Compound 9]”, the Ki in assay [4] was 1200 nM. The same measure, in the same setting: the result for “2-(Cyclohexylmethylthio)adenosine-5′-monophosphate [Compound 2]” reads 1700 nM. Take `Nc1nc(SCC2CCCCC2)nc2c1ncn2[C@@H]1O[C@H](COP(=O)(O)O)[C@@H](O)[C@H]1O` [Compound 2, 2-(Cyclohexylmethylthio)adenosine-5′-monophosphate]: in assay [1], the “Dephosphorylation (%)” value was 70.5 ± 1.17%. The same measure, in the same setting: under `CCCSc1nc(N)c2ncn([C@@H]3O[C@H](COP(=O)(O)O)[C@@H](O)[C@H]3O)c2n1` [Compound 4, 2-(Propylthio)adenosine-5′-monophosphate] stands 46.8 ± 10.5%; under `Nc1nc(SCCc2ccccc2)nc2c1ncn2[C@@H]1O[C@H](COP(=O)(O)O)[C@@H](O)[C@H]1O` [Compound 9, 2-(Phenylethylthio)adenosine-5′-monophosphate], 0%; under `Nc1nc(SC2CCCCC2)nc2c1ncn2[C@@H]1O[C@H](COP(=O)(O)O)[C@@H](O)[C@H]1O` [Compound 1, 2-(Cyclohexylthio)adenosine-5′-monophosphate], 27.5 ± 1.45%. For the compound “2-(Benzylthio)adenosine-5′-monophosphate [Compound 8]”, the Ki is 927 nM in assay [2], 120 nM in assay [4] and 8560 nM in assay [3] (setting [5]). Turning to `Nc1nc(SCCC2CCCCC2)nc2c1ncn2[C@@H]1O[C@H](COP(=O)(O)O)[C@@H](O)[C@H]1O` [Compound 3, 2-(Cyclohexylethylthio)adenosine-5′-monophosphate], the “Dephosphorylation (%)” value in assay [1] was 95% and 95.7 ± 1.15%. For the compound `C#CCSc1nc(N)c2ncn([C@@H]3O[C@H](COP(=O)(O)O)[C@@H](O)[C@H]3O)c2n1` [Example No. 10, 2-Propargylthioadenosine-5′-monophosphate], the values for the Ki in assay [2] and in assay [4] were 994 nM and 10400 nM, respectively. Consider `C=CCSc1nc(N)c2ncn([C@@H]3O[C@H](COP(=O)(O)O)[C@@H](O)[C@H]3O)c2n1` [Compound 5, 2-(Allylthio)adenosine-5′-monophosphate], for which the “Dephosphorylation (%)” value in assay [1] was 0%.
